“Also recorded” adds a separate entry of the source.
Legend:
[1] = Cell viability assay (MTT); assay type: cell-based, murine; details: mouse, B16F10 cells
Experimental: B16F10 cells were seeded into 96-well plates at the density of 5 × 10^4 cells/mL, and incubated at 37°C for 24 h. Then, the cells were treated with different concentrations of test samples for 48 h. After incubation, 20 μL MTT (5 mg/mL) was added to each well, and incubated for another 4 h at 37°C. The reaction was stopped by adding 150 μL DMSO per well. The optical density at 490 nm was measured using a microplate reader. Cell viability was calculated as the percentage of viable cells relative to the control group.

TRP-1 = assay: Western blotting of TRP-1 in B16F10 cells; assay type: cell-based, murine; details: 48 h
Experimental: (§1) Equal amounts of proteins from the preceding step were loaded and separated by using the 10% SDS-PAGE gels before being electro-transferred onto polyvinylidene fluoride membranes. The membrane was then blocked with 5% skim milk in TBST (Tris-buffered saline containing 0.1% Tween 20) at room temperature for 2 h. The blots were incubated overnight with primary antibodies against TYR, TRP-1, MITF, DCT, and β-actin at 4°C. After washing thrice with TBST (5 min), the membrane was incubated with the secondary antibody for 1 h at room temperature. The protein bands were detected using the ECL detection kit and imaged using a chemiluminescence gel imaging system, and the band intensities were analyzed by the Image J software.

MITF = assay: Western blotting of MITF in B16F10 cells; assay type: cell-based, murine; details: 48 h
Experimental: as §1

B16F10 cells = assay: Measurement of melanin content in B16F10 cells; assay type: cell-based, murine; details: 48 h; for increase of intracellular melanin content: vs untreated cells
Experimental: Measurement of melanin content was carried out according to a previously described method with a slight modification ([Karunarathne et al., 2019]). B16F10 cells were cultured in 6-well plates at the density of 2 × 10^5 cells/mL overnight before being treated with different concentrations of test samples for 48 h. After the treatments, the medium was discarded and the cells were washed twice with PBS and were collected, then 200 μL of RIPA lysis buffer was added to each well, and left standing in an ice bath for 40 min. The lysates were then clarified by centrifugation for 20 min at 4°C, 12,000 r/min. The protein content in the supernatants was measured using the Pierce BCA protein assay kit. Then the harvested cell pellets were photographed and dissolved in 100 μL of 1 M NaOH (containing 10% DMSO) at 100°C for 1 h. Melanin content was determined by measuring absorption at 405 nm. For the accurate calculation of melanin content, absorbance values were normalized to total protein absorbance values.

zebrafish larvae [2] = assay: Melanogenesis in zebrafish larvae pretreated with PTU; assay type: in vivo; details: 48 h, PTU 200 μM pretreatment
Experimental: (§2) To assess the effects of these compounds on melanogenesis in vivo, the total melanin content of whole zebrafish extracts was measured according to a previously described method with minor modification ([Karunarathne et al., 2019]; [Ding et al., 2021]). Briefly, zebrafish larvae of 24 h post-fertilized (hpf) were seeded in 24-well plates with ten embryos per well, each group was set up with four replicates and pretreated with 200 μM PTU for 24 h. Then, the culture medium was replaced with different concentrations of test samples and treated for another 48 h. 8-MOP (50 μM) was used as a positive control, blank controls were not treated and were cultured normally. In addition, to further verify the whitening effect of the compounds, ten zebrafish larvae (24 hpf) per well were seeded in a 24-well plate and cultured for another 24 h using fresh culture media, and each group was set up with four duplicates. Then, the culture medium was replaced with different concentrations of test samples, and the zebrafish larvae were incubated for another 48 h. 8-MOP (50 μM) and arbutin (100 mM) were used as positive controls. Spontaneous melanin content was measured from zebrafish larvae at 96 hpf. The fish embryos were fixed upright with sodium carboxymethylcellulose fixative. Five fish embryos from each experiment were randomly selected for photography under a stereomicroscope. The densitometric analysis was performed using Image J software.

zebrafish larvae [3] = assay: Zebrafish depigmentation model (without PTU pretreatment); assay type: in vivo; details: 48 h, no PTU pretreatment
Experimental: as §2

[4] = target: T1, Intracellular tyrosinase in B16F10 cells (Mus musculus, UniProt P11344); assay: Measurement of tyrosinase activity in B16F10 cells (L-DOPA oxidation); assay type: cell-based, murine; details: 48 h
T1 construct: endogenous in cells; host or cells: B16F10 murine melanoma cells
T1 sequence (P11344 19-533): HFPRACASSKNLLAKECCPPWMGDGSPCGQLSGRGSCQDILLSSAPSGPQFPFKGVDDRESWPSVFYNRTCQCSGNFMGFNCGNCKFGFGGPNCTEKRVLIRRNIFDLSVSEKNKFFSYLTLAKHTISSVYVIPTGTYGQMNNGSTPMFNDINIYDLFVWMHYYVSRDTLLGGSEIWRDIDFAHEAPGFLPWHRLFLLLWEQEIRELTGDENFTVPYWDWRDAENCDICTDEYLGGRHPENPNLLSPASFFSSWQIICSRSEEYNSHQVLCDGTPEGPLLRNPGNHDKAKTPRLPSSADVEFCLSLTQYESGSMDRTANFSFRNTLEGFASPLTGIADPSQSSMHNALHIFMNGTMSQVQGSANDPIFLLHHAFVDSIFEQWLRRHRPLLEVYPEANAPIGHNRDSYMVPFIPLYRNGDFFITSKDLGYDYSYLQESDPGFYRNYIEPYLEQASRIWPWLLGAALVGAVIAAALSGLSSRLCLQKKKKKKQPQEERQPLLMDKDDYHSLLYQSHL
Experimental: Intracellular tyrosinase activity was determined by measuring the rate of oxidation of L-DOPA to dopachrome according to a previously described method with a slight modification ([Maack and Pegard, 2016]). The tyrosinase inhibitor glabridin ([Zhang et al., 2023]) and tyrosinase activator 8-MOP ([Yin et al., 2018]) were both utilized as controls to ensure the accuracy of tyrosinase activity assay in living cells. B16F10 cells were cultured in 24-well plates at the density of 5 × 10^4 cells/mL overnight and then treated with different concentrations of test samples for 48 h. After treatments, cells were washed twice with PBS, lysed with PBS containing 1% Triton X-100, and frozen at −80°C for 1 h. The lysates were then clarified by centrifugation for 20 min at 4°C, 12,000 r/min. The protein content in the supernatants was measured using the Pierce BCA protein assay kit. After protein quantification and the adjustment of the protein concentrations, 100 μL of each lysate was mixed with 100 μL of 4 mM L-DOPA in a 96-well plate, and then incubated at 37°C for 1 h, the optical density at 475 nm was measured using a microplate reader. Tyrosinase activity was expressed as a percentage of the control. All experiments were carried out at least three times.

DCT = assay: Western blotting of DCT in B16F10 cells; assay type: cell-based, murine; details: 48 h
Experimental: as §1

zebrafish embryos = assay: Determination of the maximum tolerated concentration (MTC) in zebrafish embryos; assay type: in vivo; details: 24 h
Experimental: Zebrafish embryos that were developing normally at 24 h were chosen at random, five zebrafish embryos per well were seeded in 48 well plates, and each group was set up with three duplicates. The embryo culture medium in the 48-well plate was removed except the blank group, and 1 mL of culture medium containing different concentrations of test samples was added to treatment groups for 24 h. The vehicle control group was added to the embryo culture medium containing 0.1% of DMSO.

mushroom tyrosinase = mushroom tyrosinase (Agaricus bisporus, UniProt C7FF04); assay: Tyrosinase inhibition kinetic analysis (Lineweaver-Burk); assay type: biochemical; details: Lineweaver-Burk plots, L-tyrosine substrate
Sequence of mushroom tyrosinase (C7FF04 1-392): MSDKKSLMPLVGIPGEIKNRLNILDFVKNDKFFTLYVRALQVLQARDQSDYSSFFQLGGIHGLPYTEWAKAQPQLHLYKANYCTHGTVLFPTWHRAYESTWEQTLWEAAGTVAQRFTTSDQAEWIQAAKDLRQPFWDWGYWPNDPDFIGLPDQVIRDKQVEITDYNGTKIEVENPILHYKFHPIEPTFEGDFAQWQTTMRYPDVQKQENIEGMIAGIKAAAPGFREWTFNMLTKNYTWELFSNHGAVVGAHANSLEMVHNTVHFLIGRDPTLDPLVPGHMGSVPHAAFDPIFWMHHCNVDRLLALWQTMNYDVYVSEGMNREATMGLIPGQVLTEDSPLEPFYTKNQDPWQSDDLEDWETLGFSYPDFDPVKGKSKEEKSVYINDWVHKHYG
Experimental: The enzyme reaction kinetics of these compounds were measured by constructing Lineweaver-Burk plots of inverse velocities (1/[V]), contrary to the inverse of substrate concentration (1/[S]) ([Yoshino and Murakami, 2009]; [Butt et al., 2019]). Preincubations and measurement times were performed using the same protocol as described above. The substrate tyrosine concentration was kept between 0.5 and 8 mM in all kinetic studies, test sample concentrations were set as follows: glabridin (0–0.625 µM), KR (0–5 µM), SG (0–10 µM), IAI (0–2 µM). The values of the kinetic constants were calculated using Lineweaver-Burk plot analysis, and the maximum velocity (Vmax) and Michaelis constant (Km) were also calculated by the Lineweaver-Burk plots with the various concentrations of substrate.

tyrosinase = target: tyrosinase; set-up: method as in Kim et al., 2003; details: ref Kim et al., 2003; read-out: IC50 (inhibition on tyrosinase activity); cited from earlier work
TYR = assay: Western blotting of TYR in B16F10 cells; assay type: cell-based, murine; details: 10 μM, 48 h
Experimental: as §1, with “[…],” for “TRP-1,”

SMILES: COc1c2occc2cc2ccc(=O)oc12 [8-MOP, 8-methoxypsoralen, reference compound]
- viability at 48 h ([1]; 0–100 μM): > 80%
- expression of TRP-1 (in words) (TRP-1; positive control): increased
- expression of MITF (in words) (MITF; positive control): increased
- effect on melanin production in B16F10 cells (in words) (B16F10 cells): promoted melanin biosynthesis
- increase of melanin production vs model (PTU) group (zebrafish larvae [2]; 50 μM): 25.0%
- effect on melanin production vs control group (in words) (zebrafish larvae [3]): did not affect melanin production
- effect on tyrosinase activity in B16F10 cells (in words) [4]: enhance cellular tyrosinase activity

SMILES: CC1(C)C=Cc2c(ccc3c2OC[C@@H](c2ccc(O)cc2O)C3)O1 [Glabridin, glabridin, reference compound]
- viability at 48 h ([1]; 0–2 μM): > 80%
- effect on melanin production in B16F10 cells (in words) (B16F10 cells): strong anti-melanogenic effect
- effect on tyrosinase activity in B16F10 cells (in words) [4]: inhibited tyrosinase activity

SMILES: COc1cc(O)c2c(=O)c(O)c(-c3ccc(O)cc3)oc2c1CC=C(C)C [IAI, isoanhydroicaritin]
- upregulation of relative expression of DCT protein (DCT; 5 μM): 83.4%
- viability at 48 h ([1]; 0–5 μM): > 80%
- upregulation of relative expression of TRP-1 protein (TRP-1; 5 μM): 240.0%
- toxicity in zebrafish by the MTC assay (zebrafish embryos; 40, 80, and 160 μM): nontoxic
- effect on melanin production in B16F10 cells (in words) (B16F10 cells): did not exhibit significant activity; also recorded: did not exert any significant effects
- inhibition type on tyrosinase (mushroom tyrosinase): mixed type
- reduction of pigmentation vs control group (zebrafish larvae [3]; 80 μM): 33.0%
- reduction of pigmentation vs control group (zebrafish larvae [3]; 160 μM): 34.4%
- increase of tyrosinase activity in B16F10 cells ([4]; 5 μM): 25.2%
- effect on tyrosinase activity in B16F10 cells (in words) [4]: did not exhibit significant activity

SMILES: C=C(C)[C@H](CC=C(C)C)Cc1c(O)cc(OC)c2c1O[C@H](c1ccc(O)cc1O)CC2=O [KR, kurarinone]
- upregulation of relative expression of DCT protein (DCT; 10 μM): 127.8%
- viability at 48 h ([1]; 0–20 μM): > 80%
- upregulation of relative expression of TRP-1 protein (TRP-1; 10 μM): 79.2%
- toxicity in zebrafish by the MTC assay (zebrafish embryos; 5, 10, and 20 μM): nontoxic
- upregulation of relative expression of MITF protein (MITF; 10 μM): 84.0%
- IC50 (tyrosinase): 6.2 µM
- increase of intracellular melanin content (B16F10 cells; 5 μM): 61.6%
- increase of intracellular melanin content (B16F10 cells; 10 μM): 85.5%
- effect on melanin production in B16F10 cells (in words) (B16F10 cells): stimulated melanin production
- increase of melanin production vs model (PTU) group (zebrafish larvae [2]; 20 μM): 36.9%
- inhibition type on tyrosinase (mushroom tyrosinase): mixed type
- effect on melanin production vs control group (in words) (zebrafish larvae [3]): did not affect melanin production
- increase of tyrosinase activity in B16F10 cells ([4]; 2.5 μM): 25.1%
- increase of tyrosinase activity in B16F10 cells ([4]; 5 μM): 42.1%
- increase of tyrosinase activity in B16F10 cells ([4]; 10 μM): 77.2%
- effect on tyrosinase activity in B16F10 cells (in words) [4]: enhanced intracellular tyrosinase activity

SMILES: C=C(C)[C@H](CC=C(C)C)Cc1c(O)cc(O)c2c1O[C@H](c1ccc(O)cc1O)CC2=O [SG, sophoraflavanone G]
- upregulation of relative expression of DCT protein (DCT; 10 μM): 70.0%
- viability at 48 h ([1]; 0–10 μM): > 80%
- upregulation of relative expression of TRP-1 protein (TRP-1; 10 μM): 229.3%
- toxicity in zebrafish by the MTC assay (zebrafish embryos; 10 μM): nontoxic
- increase of expression of TYR (TYR): 78.4%
- IC50 (tyrosinase): 6.6 µM
- effect on melanin production in B16F10 cells (in words) (B16F10 cells): did not exhibit significant activity; also recorded: did not exert any significant effects
- effect on melanin production vs model (PTU) group (in words) (zebrafish larvae [2]; 10 μM): no effect
- inhibition type on tyrosinase (mushroom tyrosinase): mixed type
- increase of tyrosinase activity in B16F10 cells ([4]; 10 μM): 45.7%
- effect on tyrosinase activity in B16F10 cells (in words) [4]: did not exhibit significant activity

SMILES: OC[C@H]1O[C@@H](Oc2ccc(O)cc2)[C@H](O)[C@@H](O)[C@@H]1O [arbutin, reference compound]
- reduction of pigmentation vs control group (zebrafish larvae [3]; 100 mM): 51.4%

SMILES: C=C(C)[C@H](CC=C(C)C)Cc1c(O)cc(OC)c(C(=O)/C=C/c2ccc(O)cc2O)c1O [kuraridin, reference compound]
- IC50 (tyrosinase): 0.6 µM

— paper PMC11266098, “Prenylated flavonoids from Sophora flavescens inhibit mushroom tyrosinase activity and modulate melanogenesis in murine melanoma cells and zebrafish” (Frontiers in Pharmacology, 2024)
